The source made the active and inactive calls. The calls are words filed in the database; no cut-off is given here.
Legend:
[1] = Retention time of the compound by HPLC analysis; assay type: physicochemical
[2] = Chemical stability of the compound in phosphate buffer assessed as half life at pH 7.3 by HPLC analysis; assay type: physicochemical
[3] = Prodrug conversion in pH 7.3 phosphate buffer assessed as ((2S,5R)-5-(5-methyl-2,4-dioxo-3,4-dihydropyrimidin-1(2H)-yl)-2,5-dihydrofuran-2-yl)methyl tri-hydrogen diphosphate formation by measuring half life in presence of pig liver esterase by HPLC analysis; assay type: ADME
[4] = Prodrug conversion in human CEM/0 cell extract assessed as metabolite formation by measuring half life by HPLC analysis; assay type: ADME; details: ccrf-cem
[5] = Prodrug conversion in human CEM/0 cell extract assessed as ((2S,5R)-5-(5-methyl-2,4-dioxo-3,4-dihydropyrimidin-1(2H)-yl)-2,5-dihydrofuran-2-yl)methyl tri-hydrogen diphosphate formation by HPLC analysis; assay type: ADME; details: ccrf-cem
[6] = Prodrug conversion in human CEM/0 cell extract assessed as ((2S,5R)-5-(5-methyl-2,4-dioxo-3,4-dihydropyrimidin-1(2H)-yl)-2,5-dihydrofuran-2-yl)methyl dihydrogen phosphate formation by HPLC analysis; assay type: ADME; details: ccrf-cem
[7] = test system: Human immunodeficiency virus 1; assay: Antiviral activity against HIV-1 HE infected in wild-type human CEM/0 cells assessed as inhibition of virus-induced cytopathic effect incubated for 4 to 5 days by light microscopic analysis; assay type: functional, organism-based; details: Human immunodeficiency virus 1, HE, CCRF-CEM
[8] = test system: Human immunodeficiency virus 2; assay: Antiviral activity against HIV-2 ROD infected in wild-type human CEM/0 cells assessed as inhibition of virus-induced cytopathic effect incubated for 4 to 5 days by light microscopic analysis; assay type: functional, organism-based; details: Human immunodeficiency virus 2, ROD, CCRF-CEM
[9] = test system: Human immunodeficiency virus 2; assay: Antiviral activity against HIV-2 ROD infected in thymidine kinase-deficient human CEM cells assessed as inhibition of virus-induced cytopathic effect incubated for 4 to 5 days by light microscopic analysis; assay type: functional, organism-based; details: Human immunodeficiency virus 2, ROD, CCRF-CEM
[10] = Cytotoxicity against human CEM cells assessed as reduction in cell viability incubated for 4 to 5 days by light microscopic analysis; assay type: toxicity, cell-based; details: CEM cells (CCRF-CEM), time 4-5 day
[11] = Selectivity index, ratio of CC50 for human CEM cells to EC50 for HIV-2 ROD infected in thymidine kinase-deficient human CEM cells; assay type: toxicity; details: read-out: Ratio CC50/EC50
[12] = test system: Human immunodeficiency virus; assay: Substrate activity at HIV reverse transcriptase measured after 4 hrs by electrophoresis based primer extension assay
[13] = biological target: DNA polymerase beta (Homo sapiens) (UniProt P06746); assay: Substrate activity at human DNA polymerase beta measured after 4 hrs by electrophoresis based primer extension assay
[14] = biological target: T1, DNA polymerase subunit gamma-1 (Homo sapiens) (UniProt P54098); assay: Substrate activity at human DNA polymerase gamma measured after 4 hrs by electrophoresis based primer extension assay
T1 sequence (whole entry): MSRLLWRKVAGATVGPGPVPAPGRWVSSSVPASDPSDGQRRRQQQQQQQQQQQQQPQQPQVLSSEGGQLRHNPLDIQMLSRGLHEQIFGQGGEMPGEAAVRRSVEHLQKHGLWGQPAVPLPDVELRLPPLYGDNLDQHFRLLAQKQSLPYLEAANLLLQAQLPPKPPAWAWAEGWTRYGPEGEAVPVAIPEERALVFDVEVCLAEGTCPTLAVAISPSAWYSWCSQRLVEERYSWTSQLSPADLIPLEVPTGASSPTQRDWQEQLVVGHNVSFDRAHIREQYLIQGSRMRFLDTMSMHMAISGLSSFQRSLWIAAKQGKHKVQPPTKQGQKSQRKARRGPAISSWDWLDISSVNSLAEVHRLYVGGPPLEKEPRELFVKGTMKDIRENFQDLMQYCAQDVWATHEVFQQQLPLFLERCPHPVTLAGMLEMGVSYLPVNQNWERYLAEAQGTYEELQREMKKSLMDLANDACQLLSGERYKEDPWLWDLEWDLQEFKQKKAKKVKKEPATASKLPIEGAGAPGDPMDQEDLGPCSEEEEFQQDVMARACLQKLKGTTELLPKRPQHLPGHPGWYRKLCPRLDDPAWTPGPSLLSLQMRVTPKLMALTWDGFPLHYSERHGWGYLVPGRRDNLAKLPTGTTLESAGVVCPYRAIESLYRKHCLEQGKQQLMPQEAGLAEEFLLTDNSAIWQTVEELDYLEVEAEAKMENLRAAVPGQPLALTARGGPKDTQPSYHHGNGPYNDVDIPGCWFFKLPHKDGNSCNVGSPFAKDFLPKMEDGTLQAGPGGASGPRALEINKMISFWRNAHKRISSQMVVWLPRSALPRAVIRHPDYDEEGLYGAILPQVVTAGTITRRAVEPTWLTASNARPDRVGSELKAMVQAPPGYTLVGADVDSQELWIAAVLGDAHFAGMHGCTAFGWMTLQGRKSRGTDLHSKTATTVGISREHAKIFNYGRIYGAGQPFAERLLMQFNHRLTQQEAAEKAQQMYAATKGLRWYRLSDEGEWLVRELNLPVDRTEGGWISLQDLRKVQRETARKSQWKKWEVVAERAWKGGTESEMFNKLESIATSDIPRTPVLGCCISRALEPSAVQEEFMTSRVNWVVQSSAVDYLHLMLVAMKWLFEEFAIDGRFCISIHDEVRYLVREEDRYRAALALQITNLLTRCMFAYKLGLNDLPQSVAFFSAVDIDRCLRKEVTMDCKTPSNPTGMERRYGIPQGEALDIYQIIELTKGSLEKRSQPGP

[15] = test system: Human immunodeficiency virus 1; assay: Potency index, ratio of 3'-deoxy-2',3'-dehydrothymidine EC50 to compound EC50 for antiviral activity against HIV-1 HE infected in wild-type human CEM/0 cells; assay type: functional
[16] = test system: Human immunodeficiency virus 2; assay: Potency index, ratio of 3'-deoxy-2',3'-dehydrothymidine EC50 to compound EC50 for antiviral activity against HIV-2 ROD infected in wild-type human CEM/0 cells; assay type: functional
[17] = test system: Human immunodeficiency virus 2; assay: Potency index, ratio of 3'-deoxy-2',3'-dehydrothymidine EC50 to compound EC50 for antiviral activity against HIV-2 ROD infected in thymidine kinase-deficient human CEM[…] cells; assay type: functional

Compound: CCCCCCCCCCCCCCCCCCP(=O)(OC)OP(=O)(O)OP(=O)(O)OC[C@@H]1C=C[C@H](n2cc(C)c(=O)[nH]c2=O)O1.N.N (some centres not stated)
- Retention_time [1]: 15.2 min
- half-life [2]: 27.2 days
- t1/2 [3]: > 6.25 days
- t1/2 [4]: > 0.625 days
- Drug metabolism [5]: Metabolite_Detected
- Drug metabolism [6]: Metabolite_Detected
- EC50 [7]: 51 nM
- EC50 [8]: 80 nM
- EC50 [9]: 480 nM
- CC50 [10]: 40000 nM
- selectivity ratio [11]: 83
- Activity [12]: Active
- Activity [13]: inactive
- Activity [14]: inactive
- Ratio EC50 [15]: 4
- Ratio EC50 [16]: 4
- Ratio EC50 [17]: 10000

Source: ChEMBL document CHEMBL5365447, “Pronucleotides of 2',3'-Dideoxy-2',3'-Didehydrothymidine as Potent Anti-HIV Compounds” (J Med Chem, 2023)
